From ChEMBL document CHEMBL1152194, “Substituent control of DNA binding modes in a series of chalcogenoxanthylium photosensitizers as determined by isothermal titration calorimetry and topoisomerase I DNA unwinding assay” (Bioorg Med Chem, 2008)

Tests used:
[1] = molecular target: T1, DNA topoisomerase 1 (Homo sapiens) (UniProt P11387); assay: Inhibition of human DNA topoisomerase 1-induced unwinding activity using Escherichia coli pUC19 DNA assessed as bound compound per nucleotide pair at 24 uM
T1 sequence (whole entry): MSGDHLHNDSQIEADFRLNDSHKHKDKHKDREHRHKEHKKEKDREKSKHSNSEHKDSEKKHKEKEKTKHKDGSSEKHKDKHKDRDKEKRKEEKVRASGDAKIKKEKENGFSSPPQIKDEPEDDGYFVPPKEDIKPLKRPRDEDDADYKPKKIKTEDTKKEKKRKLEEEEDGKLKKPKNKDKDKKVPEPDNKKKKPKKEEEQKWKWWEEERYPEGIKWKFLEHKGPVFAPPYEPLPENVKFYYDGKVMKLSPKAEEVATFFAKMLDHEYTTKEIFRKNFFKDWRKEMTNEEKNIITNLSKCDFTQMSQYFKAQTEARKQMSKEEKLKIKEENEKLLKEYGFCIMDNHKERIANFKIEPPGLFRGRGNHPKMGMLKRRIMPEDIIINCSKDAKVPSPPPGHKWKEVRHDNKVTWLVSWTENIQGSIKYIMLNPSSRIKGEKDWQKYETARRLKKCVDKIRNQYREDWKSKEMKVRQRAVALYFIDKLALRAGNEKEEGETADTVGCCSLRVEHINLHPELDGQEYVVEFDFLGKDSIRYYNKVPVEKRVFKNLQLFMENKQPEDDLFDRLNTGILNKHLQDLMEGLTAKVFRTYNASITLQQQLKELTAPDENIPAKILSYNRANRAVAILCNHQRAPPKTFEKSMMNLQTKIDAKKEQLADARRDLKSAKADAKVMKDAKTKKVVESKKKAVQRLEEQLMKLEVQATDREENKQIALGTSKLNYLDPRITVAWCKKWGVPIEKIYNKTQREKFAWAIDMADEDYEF

[2] = physchem; settings: octanol/water
[3] = Selectivity for Kb of [poly(dAdT)]2 DNA to Kb of [poly(dCdG)]2 DNA
[4] = system: DNA; assay: Binding affinity to ultrapure calf thymus DNA in MESOO buffer at pH 6.25 at 30 degC by isothermal titration calorimetry assay; type: nucleic-acid assay, Bos taurus

Structure (SMILES): CCN(CC)C(=O)c1sccc1-c1c2ccc(=[N+](C)C)cc-2sc2cc(N(C)C)ccc12
- Activity [1]: 0.9

Structure (SMILES): CN(C)c1ccc2c(-c3cccs3)c3ccc(=[N+](C)C)cc-3[se]c2c1
- logP [2]: -0.31

Structure (SMILES): CN(C)c1ccc2c(-c3ccccc3)c3ccc(=[N+](C)C)cc-3[se]c2c1
- Ratio pKb [3]: 3
- logP [2]: 0.09

Structure (SMILES): CN(C)c1ccc2c(-c3cccs3)c3ccc(=[N+](C)C)cc-3[te]c2c1.F[P-](F)(F)(F)(F)F
- Kd [4]: 2.1 ×10⁶ /M
